Experimental data: US20050209162A1, “Methods for monitoring IL-18” (priority 2003, published 2005)

How the values were obtained:
[1] = Absorption and conversion to Compound B upon oral administration; type: in vivo; details: converted into Compound B
[2] = system: IL-18; experiment: Serum IL-18 levels (sandwich IL-18 ELISA) in healthy male subjects treated with oral Compound A for 14 days; type: in vivo, human; details: 900 mg q8 h oral
Procedure: Compound A was evaluated in a double-blind, randomized, placebo-controlled, oral dose, sequential group study in healthy male subjects. 9 subjects received 900 mg Compound A 14 days. 3 subjects received placebo treatment. Doses were administered three times a day at 8-hour intervals on Days 1 to 13 inclusive, and once in the morning of Day 14. All doses were administered in the fasted state.
Blood samples (1×3.5 mL) were taken by venepuncture or cannulation of a forearm vein(s).
Blood samples were collected into 3.5 mL SST Vacutainer® tubes (Becton Dickinson UK Ltd., Oxford) and, after mixing, stored at ambient temperature for at least 30 min prior to centrifugation. The samples were centrifuged, within 1 hour of collection, at 1500 g for 10 minutes at approximately 4° C. For each sample, the separated serum was transferred into two 5 mL suitably labelled polypropylene tubes (at least 0.6 mL in each tube), and stored within 2 hours of collection, at approximately −70° C. the laboratory for IL-18 assay.
IL-18 was assayed using a sandwich IL-18 ELISA technique (Human IL-18 ELISA Kit, Medical and Biological Laboratories, Nagoya, Japan). Standards, Controls and Samples were incubated in wells coated with an anti-human IL-18 monoclonal antibody. […] The developed color was then measured at an OD of 450 using a 630 nm reference filter.

[3] = biological target: T1, ICE (Homo sapiens, UniProt P29466); experiment: ICE inhibition constant (Ki); type: biochemical
T1 sequence (P29466 120-297 limits assumed): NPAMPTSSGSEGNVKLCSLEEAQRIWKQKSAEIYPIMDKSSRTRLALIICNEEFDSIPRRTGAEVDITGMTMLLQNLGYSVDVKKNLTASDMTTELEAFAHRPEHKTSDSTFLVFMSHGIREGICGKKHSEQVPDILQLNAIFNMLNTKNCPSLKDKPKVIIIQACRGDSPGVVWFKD
T1 sequence (P29466 317-404 limits assumed): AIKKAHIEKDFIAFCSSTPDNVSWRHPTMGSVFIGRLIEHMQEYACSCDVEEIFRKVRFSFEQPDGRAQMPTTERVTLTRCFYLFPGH

absorption upon oral administration [1] | Structure (SMILES) | inhibition of serum IL-18 concentrations (in words) ([2]; 14-day treatment period) | inhibition at 900 mg ([2]; Homo sapiens, 336 h, over 14 days of treatment, read-out: inhibition of serum IL-18 median levels) | Type of ICE inhibition [3]
rapidly absorbed | CCO[C@@H]1OC(=O)C[C@@H]1NC(=O)[C@@H]1CCCN1C(=O)[C@@H](NC(=O)c1ccc(N)c(Cl)c1)C(C)(C)C [Compound A] | gradual but marked inhibition | ~60% | –
– | CC(C)(C)[C@H](NC(=O)c1ccc(N)c(Cl)c1)C(=O)N1CCC[C@H]1C(=O)N[C@H](C=O)CC(=O)O [Compound B] | – | – | selective and reversible ICE inhibitor
